According to BindingDB's records for doi:10.1021/jm980260f (Sapienza University of Rome, 1999):

Biological target: T1, Gag-Pol polyprotein [588-1027]/[588-1147] (Human immunodeficiency virus 1, UniProt P04585)
T1 construct: 588-1027; 588-1147
Assay: HIV-1 RT Assay
Details: pH 7.8; 37 °C

Question: Which IC50 does the source give for CCC(C)Sc1nc(O)cc(Cc2c(Cl)cccc2Cl)n1 (stereo unspecified) [2-(butan-2-ylsulfanyl)-6-[(2,6-dichlorophenyl)methyl]-3,4-dihydropyrimidin-4-one] here?
Answer: The IC50 was 100 nM.
